# Measured values published in PubChem BioAssay (NCI).
#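 Here, GI50 denotes the concentration required for 50% inhibition of growth. TGI: total growth inhibition.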
# How the values were obtained:
# Experiment in all cases: NCI-60 cell line screen, 384-well format
# SK-MEL-5 melanoma = test system: SK-MEL-5 melanoma
# CAKI-1 renal = test system: CAKI-1 renal
# A498 renal = test system: A498 renal
# CCRF-CEM leukemia = test system: CCRF-CEM leukemia
# NCI-H322M lung = test system: NCI-H322M lung
# PC-3 prostate = test system: PC-3 prostate
# SK-OV-3 ovarian = test system: SK-OV-3 ovarian
# NCI-H460 NSCLC = test system: NCI-H460 NSCLC
# MCF7 breast = test system: MCF7 breast
# HS 578T breast = test system: HS 578T breast
# MALME-3M melanoma = test system: MALME-3M melanoma
# ACHN renal = test system: ACHN renal
# OVCAR-4 ovarian = test system: OVCAR-4 ovarian
smiles,measurement,setting,value
CC1(N)CCN(c2cccnc2NC(=O)c2nc(-c3ncccc3C(F)(F)F)cnc2N)CC1,GI50,SK-MEL-5 melanoma,18.2 µM
same,TGI,SK-MEL-5 melanoma,34.3 µM
same,GI50,CAKI-1 renal,6.11 µM
same,TGI,CAKI-1 renal,24.2 µM
same,GI50,A498 renal,8.29 µM
same,TGI,A498 renal,22.8 µM
same,GI50,CCRF-CEM leukemia,15.4 µM
same,TGI,CCRF-CEM leukemia,28.9 µM
same,GI50,NCI-H322M lung,23.7 µM
same,TGI,NCI-H322M lung,> 60 µM
same,GI50,PC-3 prostate,16.7 µM
same,TGI,PC-3 prostate,57 µM
same,GI50,SK-OV-3 ovarian,17.8 µM
same,TGI,SK-OV-3 ovarian,38.6 µM
same,GI50,NCI-H460 NSCLC,17.6 µM
same,TGI,NCI-H460 NSCLC,32.4 µM
same,GI50,MCF7 breast,24.6 µM
same,TGI,MCF7 breast,> 54.9 µM
same,GI50,HS 578T breast,15.9 µM
same,TGI,HS 578T breast,33.2 µM
same,GI50,MALME-3M melanoma,14.8 µM
same,TGI,MALME-3M melanoma,28.1 µM
same,GI50,ACHN renal,22.7 µM
same,TGI,ACHN renal,> 94.7 µM
same,GI50,OVCAR-4 ovarian,> 69.4 µM
same,TGI,OVCAR-4 ovarian,> 100 µM
